Consider 25 molecules from patent US20110021565A1, “PIPERIDINE DERIVATIVES AS NK3 ANTAGONISTS” (priority 2007, published 2011).

Molecules are shown by their SMILES. Read-outs that look alike come from different tables or passages of the source.

This assay addresses T1, recombinant human NK3 receptor (Homo sapiens, UniProt P29371).
T1 construct: expressed in transfected cells; host or cells: HEK293 cells, transient expression; membrane preparation
T1 sequence (P29371 1-465): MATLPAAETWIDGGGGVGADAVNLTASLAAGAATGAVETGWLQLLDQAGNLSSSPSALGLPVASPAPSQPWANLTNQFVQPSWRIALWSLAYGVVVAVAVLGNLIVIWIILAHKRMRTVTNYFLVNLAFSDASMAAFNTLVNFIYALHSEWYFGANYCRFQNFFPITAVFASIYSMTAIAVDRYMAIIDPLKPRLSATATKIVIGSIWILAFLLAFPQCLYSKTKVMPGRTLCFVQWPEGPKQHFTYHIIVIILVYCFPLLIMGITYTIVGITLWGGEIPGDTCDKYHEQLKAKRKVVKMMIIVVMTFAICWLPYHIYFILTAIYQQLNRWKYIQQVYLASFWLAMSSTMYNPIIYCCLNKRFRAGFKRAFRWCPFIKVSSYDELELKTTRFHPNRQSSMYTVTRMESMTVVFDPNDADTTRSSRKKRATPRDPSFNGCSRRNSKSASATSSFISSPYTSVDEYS
Put plainly: [3H]SR142801 competition binding assay. In short, it runs like this:
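Membranes from HEK293 cells transiently expressing the receptor (5 μg protein/well) incubated 75 min at RT with [3H]SR142801 at its KD and 10 compound concentrations (0.0003-10 μM), in pH 7.4 Tris buffer with MnCl2, phosphoramidon and BSA. Nonspecific binding defined with 10 μM SB222200; bound radioactivity counted after filtration. Ki from IC50 via Cheng-Prusoff; duplicates.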

[1] abbreviates: [3H]SR142801, membranes of HEK293 cells transiently expressing recombinant human NK3 receptor, read-out: hNK3 Ki.
Setting [2] is: representative compounds, [3H]SR142801, HEK293 membranes, human NK3 receptor, read-out: Ki NK3 h.

One may read the Ki as a dissociation constant, usually derived from enzyme kinetics or from competition with a known ligand.

With `CN(Cc1ccc(Cl)cc1)C(=O)C(CCN1CCC(N2CCCC2=O)CC1)c1ccc(F)cc1` (centres unmarked) [Example 111, N-(4-Chloro-benzyl)-2-(4-fluoro-phenyl)-N-methyl-4-[4-(2-oxo-pyrrolidin-1-yl)-piperidin-1-yl]-butyramide], under setting [1], the inhibition constant (Ki) is 408 nM. On the same count and under the same terms, for `CN(Cc1ccc(Cl)cc1)C(=O)C(CCN1CCC(N2CCCC2=O)CC1)c1ccc(Cl)cc1Cl` (centres unmarked) [Example 112, N-(4-Chloro-benzyl)-2-(2,4-dichloro-phenyl)-N-methyl-4-[4-(2-oxo-pyrrolidin-1-yl)-piperidin-1-yl]-butyramide] the value was 128 nM; for `COc1ccc(C(CCN2CCC(N3CCCC3=O)CC2)C(=O)N(C)Cc2ccc(Cl)cc2)cc1` (centres unmarked) [Example 113, N-(4-Chloro-benzyl)-2-(4-methoxy-phenyl)-N-methyl-4-[4-(2-oxo-pyrrolidin-1-yl)-piperidin-1-yl]-butyramide], 775 nM. On the same count and under the same terms, under `CN(Cc1ccc(Cl)cc1)C(=O)C(CCN1CCC(N2CCCC2=O)CC1)c1ccccc1` (centres unmarked) [Example 114, N-(4-Chloro-benzyl)-N-methyl-4-[4-(2-oxo-pyrrolidin-1-yl)-piperidin-1-yl]-2-phenyl-butyramide] stands 560 nM. On to `CN(Cc1ccc(Cl)cc1)C(=O)C(CCN1CCC(N2CCCC2=O)CC1)c1ccc(Cl)c(Cl)c1` (centres unmarked) [Example 115, N-(4-Chloro-benzyl)-2-(3,4-dichloro-phenyl)-N-methyl-4-[4-(2-oxo-pyrrolidin-1-yl)-piperidin-1-yl]-butyramide], for which the inhibitory constant (Ki) worked out at 8.1 nM under setting [1] and 8.1 nM under setting [2]. Take `CN(Cc1ccc(Cl)cc1)C(=O)C(CCN1CCC(N2CCCC2=O)CC1)c1ccc(F)c(F)c1` (centres unmarked) [Example 116, N-(4-Chloro-benzyl)-2-(3,4-difluoro-phenyl)-N-methyl-4-[4-(2-oxo-pyrrolidin-1-yl)-piperidin-1-yl]-butyramide]: the Ki under setting [1] is 198 nM. Still for that read-out and setting: for `CN(Cc1ccc(Cl)cc1)C(=O)C(CCN1CCC(N2CCCC2=O)CC1)c1ccc(Cl)nc1` (centres unmarked) [Example 117, N-(4-Chloro-benzyl)-2-(6-chloro-pyridin-3-yl)-N-methyl-4-[4-(2-oxo-pyrrolidin-1-yl)-piperidin-1-yl]-butyramide] the value was 387 nM; for `CC(NC(=O)C(C)(CCN1CCC(N2CCCC2=O)CC1)c1ccc(Cl)c(Cl)c1)c1ccc(F)c(C(F)(F)F)c1` (centres unmarked) [Example 125, 2-(3,4-Dichloro-phenyl)-N-[1-(4-fluoro-3-trifluoromethyl-phenyl)-ethyl]-2-methyl-4-[4-(2-oxo-pyrrolidin-1-yl)-piperidin-1-yl]-butyramide], 25.4 nM.

Consider `CC(c1ccc(F)c(C(F)(F)F)c1)N(C)C(=O)C(C)(CCN1CCC(N2CCCC2=O)CC1)c1ccc(Cl)c(Cl)c1` (centres unmarked) [Example 126, 2-(3,4-Dichloro-phenyl)-N-[1-(4-fluoro-3-trifluoromethyl-phenyl)-ethyl]-2,N-dimethyl-4-[4-(2-oxo-pyrrolidin-1-yl)-piperidin-1-yl]-butyramide], for which the Ki under setting [1] is 30.3 nM. For `CC[C@H](NC(=O)C(C)(CCN1CCC(N2CCCC2=O)CC1)c1ccc(Cl)c(Cl)c1)c1ccccc1` (stereo partly drawn) [Example 127, 2-(3,4-Dichloro-phenyl)-2-methyl-4-[4-(2-oxo-pyrrolidin-1-yl)-piperidin-1-yl]-N-((S)-1-phenyl-propyl)-butyramide], the inhibition constant (Ki) under setting [1] is 5.2 nM and the inhibition constant (Ki) under setting [2] was 5.2 nM. On to `CC[C@@H](NC(=O)C(C)(CCN1CCC(N2CCCC2=O)CC1)c1ccc(Cl)c(Cl)c1)c1ccccc1` (stereo partly drawn) [Example 128, 2-(3,4-Dichloro-phenyl)-2-methyl-4-[4-(2-oxo-pyrrolidin-1-yl)-piperidin-1-yl]-N-((R)-1-phenyl-propyl)-butyramide], for which the Ki under setting [1] came to 90.2 nM. In the case of `CC(CCN1CCC(N2CCCC2=O)CC1)(C(=O)NCc1ccc(F)c(C(F)(F)F)c1)c1ccc(Cl)c(Cl)c1` (centres unmarked) [Example 131, 2-(3,4-Dichloro-phenyl)-N-(4-fluoro-3-trifluoromethyl-benzyl)-2-methyl-4-[4-(2-oxo-pyrrolidin-1-yl)-piperidin-1-yl]-butyramide], the Ki is 3.4 nM under setting [1] and 3.4 nM under setting [2].

On to `CC(=O)N(C)C1CCN(CCC(C)(C(=O)NC(C)c2ccc(F)c(C(F)(F)F)c2)c2ccc(Cl)c(Cl)c2)CC1` (centres unmarked) [Example 132, 4-[4-(Acetyl-methyl-amino)-piperidin-1-yl]-2-(3,4-dichloro-phenyl)-N-[1-(4-fluoro-3-trifluoromethyl-phenyl)-ethyl]-2-methyl-butyramide], for which the inhibition constant (Ki) under setting [1] was 46.2 nM. Consider `CC(=O)N(C)C1CCN(CCC(C)(C(=O)N[C@H](CO)c2ccccc2)c2ccc(Cl)c(Cl)c2)CC1` (stereo partly drawn) [Example 133, 4-[4-(Acetyl-methyl-amino)-piperidin-1-yl]-2-(3,4-dichloro-phenyl)-N-((S)-2-hydroxy-1-phenyl-ethyl)-2-methyl-butyramide], for which the Ki under setting [1] was found to be 526 nM.

Take `CC(=O)N(C)C1CCN(CCC(C)(C(=O)N[C@@H](CO)c2ccccc2)c2ccc(Cl)c(Cl)c2)CC1` (stereo partly drawn) [Example 134, 4-[4-(Acetyl-methyl-amino)-piperidin-1-yl]-2-(3,4-dichloro-phenyl)-N-((R)-2-hydroxy-1-phenyl-ethyl)-2-methyl-butyramide]: under setting [1], the Ki is 35.6 nM. On to `CC(=O)N(C)C1CCN(CCC(C)(C(=O)NC(c2ccc(F)cc2)C(F)(F)F)c2ccc(Cl)c(Cl)c2)CC1` (centres unmarked) [Example 135, 4-[4-(Acetyl-methyl-amino)-piperidin-1-yl]-2-(3,4-dichloro-phenyl)-2-methyl-N-[2,2,2-trifluoro-1-(4-fluoro-phenyl)-ethyl]-butyramide], for which the Ki under setting [1] was 12.6 nM. Turning to `CC(=O)N(C)C1CCN(CCC(C)(C(=O)N[C@@H](CO)c2ccc(Cl)cc2)c2ccc(Cl)c(Cl)c2)CC1` (stereo partly drawn) [Example 136, 4-[4-(Acetyl-methyl-amino)-piperidin-1-yl]-N-[1-(4-chloro-phenyl)-2-hydroxy-ethyl]-2-(3,4-dichloro-phenyl)-2-methyl-butyramide (diastereosisomer 1)], the inhibitory constant (Ki) by setting is: under setting [1], 9.6 nM; under setting [2], 9.6 nM. Consider `CC(=O)N(C)C1CCN(CCC(C)(C(=O)N[C@H](CO)c2ccc(Cl)cc2)c2ccc(Cl)c(Cl)c2)CC1` (stereo partly drawn) [Example 137, 4-[4-(Acetyl-methyl-amino)-piperidin-1-yl]-N-[1-(4-chloro-phenyl)-2-hydroxy-ethyl]-2-(3,4-dichloro-phenyl)-2-methyl-butyramide (diastereosisomer 2)], for which the inhibitory constant (Ki) under setting [1] came to 56 nM.

As to `COCCN(C(C)=O)C1CCN(CCC(C)(C(=O)N[C@@H](CO)c2ccc(Cl)c(Cl)c2)c2ccc(Cl)c(Cl)c2)CC1` (stereo partly drawn) [Example 148, 4-{4-[Acetyl-(2-methoxy-ethyl)-amino]-piperidin-1-yl}-2-(3,4-dichloro-phenyl)-N-[1-(3,4-dichloro-phenyl)-2-hydroxy-ethyl]-2-methyl-butyramide (diastreoisomer 1)], the inhibition constant (Ki) was 3.8 nM under setting [1] and 3.8 nM under setting [2]. Turning to `COCCN(C(C)=O)C1CCN(CCC(C)(C(=O)N[C@H](CO)c2ccc(Cl)c(Cl)c2)c2ccc(Cl)c(Cl)c2)CC1` (stereo partly drawn) [Example 149, 4-{4-[Acetyl-(2-methoxy-ethyl)-amino]-piperidin-1-yl}-2-(3,4-dichloro-phenyl)-N-[(S)-1-(3,4-dichloro-phenyl)-2-hydroxy-ethyl]-2-methyl-butyramide (diastreoisomer 2)], the inhibition constant Ki under setting [1] amounted to 19.4 nM. With `CC[C@H](NC(=O)C(C)(CCN1CCC(N(CCOC)C(C)=O)CC1)c1ccc(Cl)c(Cl)c1)c1ccccc1` (stereo partly drawn) [Example 152, 4-{4-[Acetyl-(2-methoxy-ethyl)-amino]-piperidin-1-yl}-2-(3,4-dichloro-phenyl)-2-methyl-N-((S)-1-phenyl-propyl)-butyramide], the inhibitory constant (Ki) is, setting by setting: under setting [1], 1.1 nM; under setting [2], 1.1 nM.

Turning to `CC[C@@H](NC(=O)C(C)(CCN1CCC(N(CCOC)C(C)=O)CC1)c1ccc(Cl)c(Cl)c1)c1ccccc1` (stereo partly drawn) [Example 153, 4-{4-[Acetyl-(2-methoxy-ethyl)-amino]-piperidin-1-yl}-2-(3,4-dichloro-phenyl)-2-methyl-N-((R)-1-phenyl-propyl)-butyramide], the Ki under setting [1] is 60.9 nM. For `CC(=O)NC1CCN(CCC(C)(C(=O)N[C@@H](CO)c2ccc(F)cc2)c2ccc(Cl)c(Cl)c2)CC1` (stereo partly drawn) [Example 160, 4-(4-Acetylamino-piperidin-1-yl)-2-(3,4-dichloro-phenyl)-N-[(R)-1-(4-fluoro-phenyl)-2-hydroxy-ethyl]-2-methyl-butyramide], under setting [1], the Ki came to 200 nM. On the same count and under the same terms, for `CC[C@H](NC(=O)C(C)(CCN1CCC(NC(C)=O)CC1)c1ccc(Cl)c(Cl)c1)c1ccccc1` (stereo partly drawn) [Example 161, 4-(4-Acetylamino-piperidin-1-yl)-2-(3,4-dichloro-phenyl)-2-methyl-N-((S)-1-phenyl-propyl)-butyramide] the value was 44.2 nM. As to `CCCN(C(C)=O)C1CCN(CCC(C)(C(=O)N[C@@H](CC)c2ccccc2)c2ccc(Cl)c(Cl)c2)CC1` (stereo partly drawn) [Example 164, 4-[4-(Acetyl-propyl-amino)-piperidin-1-yl]-2-(3,4-dichloro-phenyl)-2-methyl-N-((S)-1-phenyl-propyl)-butyramide], the inhibition constant (Ki) by setting is: under setting [1], 0.8 nM; under setting [2], 0.8 nM.
